Columns and labels:
[1] = acid media pH 1
Procedure: Thus, sodium bicarbonate was added to a prototype formulation primarily to control rapid pH elevation and calcium carbonate for a more sustained control of elevated pH.

[2] = pH monitoring of calcium carbonate antacid tablets in HCl dissolution vessel; assay type: physicochemical; conditions: five tablets, 25 mEq of HCl
Procedure: Two dissolution vessels were prepared: one vessel contained 25 mEq of HCl and a single commercially available calcium carbonate antacid tablet (Tums®), and the other vessel contained 25 mEq of HCl and five calcium carbonate antacid tablets. […] Calcium carbonate has shown a capability as a pH modifier and pH dependent solubility.

Compound | time to raise acid media from pH 1 to pH 6 [1] | pH reached in 10 minutes [2]
O=C([O-])O.[Na+] [sodium bicarbonate] | less than 2 minutes | 
O=C([O-])[O-].[Ca+2] [calcium carbonate] |  | 5

From patent publication US11103581B2, “Methods and compositions for self-regulated release of active pharmaceutical ingredient” (Acura Pharmaceuticals, Inc., priority 2015, dated 2021)
